Measurements taken from ChEMBL document CHEMBL2074424, “Breast cancer resistance protein directly confers SN-38 resistance of lung cancer cells” (Biochem Biophys Res Commun, 2001).

Biological target: T1, Broad substrate specificity ATP-binding cassette transporter ABCG2 (Homo sapiens, UniProt Q9UNQ0)
T1 sequence (Q9UNQ0 whole entry): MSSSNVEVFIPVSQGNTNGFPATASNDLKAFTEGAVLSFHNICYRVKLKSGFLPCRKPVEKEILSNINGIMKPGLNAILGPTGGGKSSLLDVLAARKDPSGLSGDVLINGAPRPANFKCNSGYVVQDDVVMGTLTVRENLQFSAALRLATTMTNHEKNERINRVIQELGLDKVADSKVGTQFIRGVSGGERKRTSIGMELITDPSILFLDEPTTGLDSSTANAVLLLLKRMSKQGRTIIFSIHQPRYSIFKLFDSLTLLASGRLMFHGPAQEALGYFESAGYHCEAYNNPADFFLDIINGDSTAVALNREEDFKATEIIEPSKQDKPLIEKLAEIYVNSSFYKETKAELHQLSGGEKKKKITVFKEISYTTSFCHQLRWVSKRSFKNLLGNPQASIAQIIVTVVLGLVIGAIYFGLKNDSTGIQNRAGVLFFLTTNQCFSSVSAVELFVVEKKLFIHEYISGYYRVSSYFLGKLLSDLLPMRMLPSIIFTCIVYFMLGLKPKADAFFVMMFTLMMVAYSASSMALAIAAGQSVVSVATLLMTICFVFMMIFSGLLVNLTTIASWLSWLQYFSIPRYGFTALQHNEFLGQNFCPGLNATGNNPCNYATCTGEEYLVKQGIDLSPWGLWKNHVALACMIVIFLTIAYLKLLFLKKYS
Experiment: TP_TRANSPORTER: inhibition of accumulation by antisense of BCRP in PC-6/SN2-5,PC-6/SN2-5H cells
Format: functional, cell-based

Compound: CCc1c2c(nc3ccc(O)cc13)-c1cc3c(c(=O)n1C2)COC(=O)[C@]3(O)CC [7-ETHYL-10-HYDROXYCAMPTOTHECIN]
- Activity: substrate [+]
